What was measured:
Assay in all cases: KINOMEscan competition binding
Conditions in all cases: compound 10.0 µM
[1] = system: EGFR (human), P00533 [G719C]
[2] = system: RET (human), P07949 [V804L]
[3] = system: PIK3CA (human), P42336 [H1047L]
[4] = system: BMX (human), P51813 [V600E]
[5] = system: PIK3CA (human), P42336 [E542K]
[6] = system: PIK3CA (human), P42336 [M1043I]
[7] = system: EGFR (human), P00533 [A750P; 747-749 del]
[8] = system: LRRK2 (human), Q5S007 [G2019S]
[9] = system: EGFR (human), P00533 [L858R]
[10] = system: KIT (human), P10721 [A829P]
[11] = system: FGFR3 (human), P22607 [G697C]
[12] = system: FLT3 (human), P36888 [D835Y]
[13] = system: KIT (human), P10721 [D816H]
[14] = system: MET (human), P08581 [M1250T]

KIT (human), P10721 [A829P], sequence (P10721 whole entry A829P, looked up): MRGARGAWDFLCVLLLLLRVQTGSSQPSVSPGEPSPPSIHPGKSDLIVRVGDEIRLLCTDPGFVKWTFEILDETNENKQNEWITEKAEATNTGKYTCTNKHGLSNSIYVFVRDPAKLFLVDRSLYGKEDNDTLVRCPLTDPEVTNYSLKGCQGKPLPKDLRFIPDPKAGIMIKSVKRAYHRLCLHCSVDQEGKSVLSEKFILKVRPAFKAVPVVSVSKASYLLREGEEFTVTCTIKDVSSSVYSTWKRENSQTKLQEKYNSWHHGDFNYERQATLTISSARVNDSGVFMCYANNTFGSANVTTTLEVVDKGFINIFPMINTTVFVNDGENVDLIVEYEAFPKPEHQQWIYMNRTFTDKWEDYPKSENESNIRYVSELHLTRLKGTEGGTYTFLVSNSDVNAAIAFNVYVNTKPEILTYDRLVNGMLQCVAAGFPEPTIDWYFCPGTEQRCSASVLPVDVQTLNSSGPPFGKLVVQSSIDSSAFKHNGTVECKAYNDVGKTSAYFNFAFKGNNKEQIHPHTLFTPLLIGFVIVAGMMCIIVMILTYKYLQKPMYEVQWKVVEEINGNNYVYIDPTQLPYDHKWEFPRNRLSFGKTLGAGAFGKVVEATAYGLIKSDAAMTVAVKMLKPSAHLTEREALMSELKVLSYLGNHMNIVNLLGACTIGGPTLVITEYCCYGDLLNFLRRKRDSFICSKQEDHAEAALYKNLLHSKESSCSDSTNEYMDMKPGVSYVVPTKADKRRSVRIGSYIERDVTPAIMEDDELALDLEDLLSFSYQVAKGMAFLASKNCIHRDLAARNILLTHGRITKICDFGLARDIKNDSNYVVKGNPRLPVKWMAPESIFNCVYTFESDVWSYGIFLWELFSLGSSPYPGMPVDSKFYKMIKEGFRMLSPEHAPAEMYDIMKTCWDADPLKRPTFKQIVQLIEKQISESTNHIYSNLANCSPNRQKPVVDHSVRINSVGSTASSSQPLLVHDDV
PIK3CA (human), P42336 [M1043I], sequence (P42336 whole entry M1043I, looked up): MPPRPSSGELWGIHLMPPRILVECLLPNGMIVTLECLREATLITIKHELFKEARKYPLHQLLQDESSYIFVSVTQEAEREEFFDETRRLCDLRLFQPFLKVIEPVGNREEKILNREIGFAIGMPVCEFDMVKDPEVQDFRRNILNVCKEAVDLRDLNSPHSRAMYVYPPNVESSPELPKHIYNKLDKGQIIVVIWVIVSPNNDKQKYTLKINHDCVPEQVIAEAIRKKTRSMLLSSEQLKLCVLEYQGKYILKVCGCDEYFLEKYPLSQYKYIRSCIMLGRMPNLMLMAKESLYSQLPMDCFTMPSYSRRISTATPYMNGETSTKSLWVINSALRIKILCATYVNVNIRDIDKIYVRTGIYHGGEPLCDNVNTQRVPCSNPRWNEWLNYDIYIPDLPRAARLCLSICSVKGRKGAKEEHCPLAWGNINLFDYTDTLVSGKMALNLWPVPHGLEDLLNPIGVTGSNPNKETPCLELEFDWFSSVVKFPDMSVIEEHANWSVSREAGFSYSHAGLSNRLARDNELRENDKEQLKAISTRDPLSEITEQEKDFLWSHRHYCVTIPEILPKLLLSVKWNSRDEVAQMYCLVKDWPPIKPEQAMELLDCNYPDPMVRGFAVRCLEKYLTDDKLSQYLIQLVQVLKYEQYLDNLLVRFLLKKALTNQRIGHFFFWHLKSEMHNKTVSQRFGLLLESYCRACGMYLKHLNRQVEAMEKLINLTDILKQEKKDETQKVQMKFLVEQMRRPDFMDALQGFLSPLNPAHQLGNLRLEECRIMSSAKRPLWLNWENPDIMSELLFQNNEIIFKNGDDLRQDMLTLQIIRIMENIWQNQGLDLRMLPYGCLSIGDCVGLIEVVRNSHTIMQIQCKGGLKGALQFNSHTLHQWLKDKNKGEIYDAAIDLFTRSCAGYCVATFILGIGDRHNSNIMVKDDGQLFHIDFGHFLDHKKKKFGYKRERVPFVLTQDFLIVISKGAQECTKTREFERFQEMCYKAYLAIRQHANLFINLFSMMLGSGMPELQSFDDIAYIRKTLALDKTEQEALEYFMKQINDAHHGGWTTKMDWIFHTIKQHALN
PIK3CA (human), P42336 [E542K], sequence (P42336 whole entry E542K, looked up): as the sequence (P42336 whole entry M1043I, looked up) above, with E542K, I1043M counted along it
KIT (human), P10721 [D816H], sequence (P10721 whole entry D816H, looked up): as the sequence (P10721 whole entry A829P, looked up) above, with D816H, P829A counted along it
BMX (human), P51813 [V600E], sequence (P51813 whole entry, looked up, stated change not applied): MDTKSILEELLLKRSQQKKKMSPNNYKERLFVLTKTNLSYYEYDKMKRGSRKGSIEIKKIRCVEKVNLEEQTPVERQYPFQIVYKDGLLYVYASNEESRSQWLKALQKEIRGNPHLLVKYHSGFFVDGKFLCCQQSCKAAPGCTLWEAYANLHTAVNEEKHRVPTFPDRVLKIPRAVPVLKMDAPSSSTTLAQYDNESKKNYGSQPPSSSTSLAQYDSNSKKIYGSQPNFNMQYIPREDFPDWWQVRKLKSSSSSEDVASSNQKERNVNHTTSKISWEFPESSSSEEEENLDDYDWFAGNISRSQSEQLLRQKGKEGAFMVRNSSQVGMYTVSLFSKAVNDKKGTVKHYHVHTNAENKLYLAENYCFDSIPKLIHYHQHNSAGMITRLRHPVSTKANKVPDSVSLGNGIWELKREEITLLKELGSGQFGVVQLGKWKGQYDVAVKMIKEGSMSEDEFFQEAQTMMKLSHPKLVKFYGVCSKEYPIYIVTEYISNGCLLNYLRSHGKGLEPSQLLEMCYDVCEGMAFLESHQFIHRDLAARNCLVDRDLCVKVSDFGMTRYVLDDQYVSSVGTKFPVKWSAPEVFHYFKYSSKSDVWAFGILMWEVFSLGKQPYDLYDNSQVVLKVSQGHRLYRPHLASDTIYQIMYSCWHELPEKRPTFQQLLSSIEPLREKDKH
PIK3CA (human), P42336 [H1047L], sequence (P42336 whole entry H1047L, looked up): as the sequence (P42336 whole entry M1043I, looked up) above, with I1043M, H1047L counted along it
FGFR3 (human), P22607 [G697C], sequence (P22607 whole entry G697C, looked up): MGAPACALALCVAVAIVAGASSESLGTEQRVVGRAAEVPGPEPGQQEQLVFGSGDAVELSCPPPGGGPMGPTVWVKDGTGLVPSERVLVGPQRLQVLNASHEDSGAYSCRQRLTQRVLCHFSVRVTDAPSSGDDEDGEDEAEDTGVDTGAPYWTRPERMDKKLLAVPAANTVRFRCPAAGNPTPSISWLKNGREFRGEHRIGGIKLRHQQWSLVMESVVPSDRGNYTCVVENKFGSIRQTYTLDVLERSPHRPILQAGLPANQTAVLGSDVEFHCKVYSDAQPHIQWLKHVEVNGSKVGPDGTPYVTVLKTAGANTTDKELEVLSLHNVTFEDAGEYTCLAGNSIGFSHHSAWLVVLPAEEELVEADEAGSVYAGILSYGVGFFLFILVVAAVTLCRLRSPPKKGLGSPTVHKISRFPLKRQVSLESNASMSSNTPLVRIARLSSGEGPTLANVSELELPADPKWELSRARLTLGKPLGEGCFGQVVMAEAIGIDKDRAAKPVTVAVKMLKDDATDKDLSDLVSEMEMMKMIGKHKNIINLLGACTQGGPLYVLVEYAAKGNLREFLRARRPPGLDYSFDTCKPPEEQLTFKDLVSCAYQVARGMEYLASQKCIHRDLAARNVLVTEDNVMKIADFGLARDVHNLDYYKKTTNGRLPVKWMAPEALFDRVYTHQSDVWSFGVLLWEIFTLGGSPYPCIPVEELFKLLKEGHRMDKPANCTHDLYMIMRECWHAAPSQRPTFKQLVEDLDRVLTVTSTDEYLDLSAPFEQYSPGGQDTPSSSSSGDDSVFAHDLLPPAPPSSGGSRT
RET (human), P07949 [V804L], sequence (P07949 whole entry V804L, looked up): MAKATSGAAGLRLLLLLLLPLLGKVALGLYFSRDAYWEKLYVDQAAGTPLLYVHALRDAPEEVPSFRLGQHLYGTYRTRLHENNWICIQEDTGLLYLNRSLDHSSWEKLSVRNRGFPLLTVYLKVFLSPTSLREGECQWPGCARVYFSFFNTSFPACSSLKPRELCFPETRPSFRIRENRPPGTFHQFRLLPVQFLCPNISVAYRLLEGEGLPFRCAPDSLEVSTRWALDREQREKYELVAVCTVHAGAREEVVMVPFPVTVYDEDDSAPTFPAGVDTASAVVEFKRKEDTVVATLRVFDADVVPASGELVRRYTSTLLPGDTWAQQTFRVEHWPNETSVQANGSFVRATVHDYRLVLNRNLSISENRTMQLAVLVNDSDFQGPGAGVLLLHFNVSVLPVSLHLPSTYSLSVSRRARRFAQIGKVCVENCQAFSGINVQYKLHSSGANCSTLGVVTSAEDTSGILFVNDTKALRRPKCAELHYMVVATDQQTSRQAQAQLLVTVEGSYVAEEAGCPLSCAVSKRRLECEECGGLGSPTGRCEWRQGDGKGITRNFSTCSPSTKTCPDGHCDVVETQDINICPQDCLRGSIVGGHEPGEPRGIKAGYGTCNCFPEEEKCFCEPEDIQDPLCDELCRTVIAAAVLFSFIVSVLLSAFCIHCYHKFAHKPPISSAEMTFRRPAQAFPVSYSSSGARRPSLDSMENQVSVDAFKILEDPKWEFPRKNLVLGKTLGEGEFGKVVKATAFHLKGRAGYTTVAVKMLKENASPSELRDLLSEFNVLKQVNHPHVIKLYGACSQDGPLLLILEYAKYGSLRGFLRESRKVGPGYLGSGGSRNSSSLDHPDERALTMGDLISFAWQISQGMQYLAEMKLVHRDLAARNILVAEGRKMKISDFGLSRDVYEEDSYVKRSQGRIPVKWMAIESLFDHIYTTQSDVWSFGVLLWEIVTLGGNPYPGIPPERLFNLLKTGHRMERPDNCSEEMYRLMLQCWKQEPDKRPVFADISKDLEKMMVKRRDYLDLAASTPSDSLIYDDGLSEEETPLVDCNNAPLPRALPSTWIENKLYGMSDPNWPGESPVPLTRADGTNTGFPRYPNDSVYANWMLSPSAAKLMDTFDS

Q: How did the kinase still bound, per cent of control [1] turn out when `C=CC(=O)Nc1cc(NC(=O)c2ccc(C)c(NC(=O)c3ccno3)c2)cc(C(F)(F)F)c1` was run?
A: The kinase still bound, per cent of control was 94%.

Q: And the kinase still bound, per cent of control [2]?
A: Its kinase still bound, per cent of control is 100%.

Q: What about the kinase still bound, per cent of control [3] of the same compound?
A: Its kinase still bound, per cent of control is 73%.

Q: And the kinase still bound, per cent of control [4]?
A: The kinase still bound, per cent of control was 19%.

Q: And the kinase still bound, per cent of control [5]?
A: Its kinase still bound, per cent of control is 88%.

Q: And the kinase still bound, per cent of control [6]?
A: The kinase still bound, per cent of control was 93%.

Q: And the kinase still bound, per cent of control [7]?
A: The kinase still bound, per cent of control was 100%.

Q: And the kinase still bound, per cent of control [8]?
A: Its kinase still bound, per cent of control is 85%.

Q: And the kinase still bound, per cent of control [9]?
A: Its kinase still bound, per cent of control is 100%.

Q: What about the kinase still bound, per cent of control [10] of the same compound?
A: The kinase still bound, per cent of control was 54%.

Q: And the kinase still bound, per cent of control [11]?
A: Its kinase still bound, per cent of control is 91%.

Q: What about the kinase still bound, per cent of control [12] of the same compound?
A: The kinase still bound, per cent of control was 100%.

Q: What about the kinase still bound, per cent of control [13] of the same compound?
A: Its kinase still bound, per cent of control is 75%.

Q: And the kinase still bound, per cent of control [14]?
A: Its kinase still bound, per cent of control is 86%.

Q: For `Cc1cc([C@@H](C)Nc2ccccc2C(=O)O)c2nc(N3CCOCC3)cc(=O)n2c1`, which kinase still bound, per cent of control [1] is on record?
A: The kinase still bound, per cent of control was 95%.

Q: What about the kinase still bound, per cent of control [2] of the same compound?
A: Its kinase still bound, per cent of control is 99%.

Q: And the kinase still bound, per cent of control [4]?
A: The kinase still bound, per cent of control was 92%.

Q: What about the kinase still bound, per cent of control [7] of the same compound?
A: The kinase still bound, per cent of control was 100%.

Q: What about the kinase still bound, per cent of control [8] of the same compound?
A: The kinase still bound, per cent of control was 100%.

Q: What about the kinase still bound, per cent of control [9] of the same compound?
A: Its kinase still bound, per cent of control is 100%.

Q: And the kinase still bound, per cent of control [10]?
A: The kinase still bound, per cent of control was 100%.

Q: And the kinase still bound, per cent of control [11]?
A: The kinase still bound, per cent of control was 100%.

Q: And the kinase still bound, per cent of control [12]?
A: Its kinase still bound, per cent of control is 54%.

Q: What about the kinase still bound, per cent of control [13] of the same compound?
A: The kinase still bound, per cent of control was 88%.

Q: What about the kinase still bound, per cent of control [14] of the same compound?
A: Its kinase still bound, per cent of control is 87%.

Q: `NC(=O)Nc1cc(-c2cccc(F)c2)sc1C(=O)N[C@@H]1CCCNC1` was tested. Which kinase still bound, per cent of control [1] did it give?
A: Its kinase still bound, per cent of control is 0.05%.

Q: What about the kinase still bound, per cent of control [2] of the same compound?
A: The kinase still bound, per cent of control was 0%.

Q: What about the kinase still bound, per cent of control [3] of the same compound?
A: Its kinase still bound, per cent of control is 100%.

Q: What about the kinase still bound, per cent of control [4] of the same compound?
A: Its kinase still bound, per cent of control is 89%.

Q: And the kinase still bound, per cent of control [5]?
A: The kinase still bound, per cent of control was 100%.

Q: What about the kinase still bound, per cent of control [6] of the same compound?
A: The kinase still bound, per cent of control was 100%.

Q: And the kinase still bound, per cent of control [7]?
A: Its kinase still bound, per cent of control is 0.65%.

Q: What about the kinase still bound, per cent of control [8] of the same compound?
A: The kinase still bound, per cent of control was 4.2%.

Q: And the kinase still bound, per cent of control [9]?
A: The kinase still bound, per cent of control was 2.2%.

Q: What about the kinase still bound, per cent of control [11] of the same compound?
A: Its kinase still bound, per cent of control is 22%.

Q: And the kinase still bound, per cent of control [12]?
A: The kinase still bound, per cent of control was 0.1%.

Q: And the kinase still bound, per cent of control [14]?
A: The kinase still bound, per cent of control was 4.7%.

Q: Which results are given for `COCC(=O)NC/C=C/c1ccc2ncnc(Nc3ccc(Oc4ccc(C)nc4)c(C)c3)c2c1`?
A: kinase still bound, per cent of control [2]: 100%; kinase still bound, per cent of control [3]: 100%; kinase still bound, per cent of control [4]: 80%; kinase still bound, per cent of control [5]: 100%; kinase still bound, per cent of control [6]: 100%; kinase still bound, per cent of control [8]: 98%; kinase still bound, per cent of control [11]: 90%; kinase still bound, per cent of control [13]: 100%; kinase still bound, per cent of control [14]: 100%

Q: How did the kinase still bound, per cent of control [3] turn out when `C[C@@H](Oc1cc(-c2cnn(C3CCNCC3)c2)cnc1N)c1c(Cl)ccc(F)c1Cl` was run?
A: Its kinase still bound, per cent of control is 48%.

Q: What about the kinase still bound, per cent of control [5] of the same compound?
A: The kinase still bound, per cent of control was 100%.

Q: What about the kinase still bound, per cent of control [8] of the same compound?
A: The kinase still bound, per cent of control was 57%.

Q: What about the kinase still bound, per cent of control [10] of the same compound?
A: Its kinase still bound, per cent of control is 35%.

Q: What about the kinase still bound, per cent of control [11] of the same compound?
A: The kinase still bound, per cent of control was 27%.

Q: What about the kinase still bound, per cent of control [12] of the same compound?
A: The kinase still bound, per cent of control was 11%.

Q: And the kinase still bound, per cent of control [13]?
A: The kinase still bound, per cent of control was 50%.

Q: What does the source list for `O=C1NC(=O)/C(=C/c2ccc3nccc(-c4ccncc4)c3c2)S1`?
A: kinase still bound, per cent of control [1]: 54%; kinase still bound, per cent of control [2]: 100%; kinase still bound, per cent of control [3]: 27%; kinase still bound, per cent of control [4]: 41%; kinase still bound, per cent of control [5]: 0.2%; kinase still bound, per cent of control [6]: 0%; kinase still bound, per cent of control [7]: 47%; kinase still bound, per cent of control [8]: 58%; kinase still bound, per cent of control [9]: 43%; kinase still bound, per cent of control [10]: 88%; kinase still bound, per cent of control [11]: 100%; kinase still bound, per cent of control [12]: 28%; kinase still bound, per cent of control [13]: 89%; kinase still bound, per cent of control [14]: 40%

Q: What does the source list for `O=C(NC1CC1)c1cccc(-c2ccc3c(NC(=O)C4CC4)n[nH]c3c2)c1`?
A: kinase still bound, per cent of control [1]: 73%; kinase still bound, per cent of control [2]: 96%; kinase still bound, per cent of control [3]: 98%; kinase still bound, per cent of control [4]: 65%; kinase still bound, per cent of control [5]: 100%; kinase still bound, per cent of control [6]: 92%; kinase still bound, per cent of control [7]: 82%; kinase still bound, per cent of control [8]: 87%; kinase still bound, per cent of control [9]: 93%; kinase still bound, per cent of control [10]: 76%; kinase still bound, per cent of control [11]: 100%; kinase still bound, per cent of control [12]: 15%; kinase still bound, per cent of control [13]: 75%; kinase still bound, per cent of control [14]: 73%

Q: For `C=CC(=O)Nc1cc(-n2c(=O)ccc3cnc4ccc(-c5cn[nH]c5)cc4c32)ccc1C`, which kinase still bound, per cent of control [1] is on record?
A: The kinase still bound, per cent of control was 100%.

Q: What about the kinase still bound, per cent of control [2] of the same compound?
A: The kinase still bound, per cent of control was 79%.

Q: And the kinase still bound, per cent of control [3]?
A: The kinase still bound, per cent of control was 4.6%.

Q: And the kinase still bound, per cent of control [4]?
A: The kinase still bound, per cent of control was 91%.

Q: And the kinase still bound, per cent of control [5]?
A: The kinase still bound, per cent of control was 20%.

Q: And the kinase still bound, per cent of control [6]?
A: Its kinase still bound, per cent of control is 15%.

Q: What about the kinase still bound, per cent of control [7] of the same compound?
A: Its kinase still bound, per cent of control is 26%.

Q: And the kinase still bound, per cent of control [8]?
A: The kinase still bound, per cent of control was 6.4%.

Q: And the kinase still bound, per cent of control [9]?
A: The kinase still bound, per cent of control was 41%.

Q: And the kinase still bound, per cent of control [10]?
A: The kinase still bound, per cent of control was 36%.

Q: What about the kinase still bound, per cent of control [11] of the same compound?
A: The kinase still bound, per cent of control was 74%.

Q: What about the kinase still bound, per cent of control [12] of the same compound?
A: Its kinase still bound, per cent of control is 1.2%.

Q: And the kinase still bound, per cent of control [13]?
A: Its kinase still bound, per cent of control is 14%.

Q: And the kinase still bound, per cent of control [14]?
A: The kinase still bound, per cent of control was 80%.
